Experimental data from the supplement of paper PMC11451515.

Tested on: NOMO1
Assay: cell viability relative to DMSO control; higher = less cytotoxic
Settings: 48 h
How it was run: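 Library compounds in DMSO were pin-dosed into 1536-well plates (5 μl) holding NOMO1 or SEM (500 cells/well) or P12-Ichikawa (1000 cells/well) leukemia cells, across an 11-point threefold series of 47 μM to 0.79 nM. Each cell line had been adapted for at least four passages in each medium. CellTiter-Glo One luminescence was read after 48 h at 37°C. Viability is the per-plate percentage relative to DMSO wells, with cell-free wells as background.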

[1] = HPLM + 10% dialyzed FBS, 0.000781 µM
[2] = HPLM + 10% dialyzed FBS, 0.00234 µM
[3] = HPLM + 10% dialyzed FBS, 0.00702 µM
[4] = HPLM + 10% dialyzed FBS, 0.0211 µM
[5] = HPLM + 10% dialyzed FBS, 0.0632 µM
[6] = HPLM + 10% dialyzed FBS, 0.19 µM
[7] = HPLM + 10% dialyzed FBS, 0.569 µM
[8] = HPLM + 10% dialyzed FBS, 1.71 µM
[9] = HPLM + 10% dialyzed FBS, 5.12 µM
[10] = HPLM + 10% dialyzed FBS, 15.4 µM
[11] = HPLM + 10% dialyzed FBS, 46.1 µM
[12] = RPMI 5 mM glucose + 10% FBS, 0.000781 µM
[13] = RPMI 5 mM glucose + 10% FBS, 0.00234 µM
[14] = RPMI 5 mM glucose + 10% FBS, 0.00702 µM
[15] = RPMI 5 mM glucose + 10% FBS, 0.0211 µM
[16] = RPMI 5 mM glucose + 10% FBS, 0.0632 µM
[17] = RPMI 5 mM glucose + 10% FBS, 0.19 µM
[18] = RPMI 5 mM glucose + 10% FBS, 0.569 µM
[19] = RPMI 5 mM glucose + 10% FBS, 1.71 µM
[20] = RPMI 5 mM glucose + 10% FBS, 5.12 µM
[21] = RPMI 5 mM glucose + 10% FBS, 15.4 µM
[22] = RPMI 5 mM glucose + 10% FBS, 46.1 µM
[23] = RPMI 5 mM glucose + 10% dialyzed FBS, 0.000781 µM
[24] = RPMI 5 mM glucose + 10% dialyzed FBS, 0.00234 µM
[25] = RPMI 5 mM glucose + 10% dialyzed FBS, 0.00702 µM
[26] = RPMI 5 mM glucose + 10% dialyzed FBS, 0.0211 µM
[27] = RPMI 5 mM glucose + 10% dialyzed FBS, 0.0632 µM
[28] = RPMI 5 mM glucose + 10% dialyzed FBS, 0.19 µM
[29] = RPMI 5 mM glucose + 10% dialyzed FBS, 0.569 µM
[30] = RPMI 5 mM glucose + 10% dialyzed FBS, 1.71 µM
[31] = RPMI 5 mM glucose + 10% dialyzed FBS, 5.12 µM
[32] = RPMI 5 mM glucose + 10% dialyzed FBS, 15.4 µM
[33] = RPMI 5 mM glucose + 10% dialyzed FBS, 46.1 µM

Row | SMILES | cell viability [1] [%] | cell viability [2] [%] | cell viability [3] [%] | cell viability [4] [%] | cell viability [5] [%] | cell viability [6] [%] | cell viability [7] [%] | cell viability [8] [%] | cell viability [9] [%] | cell viability [10] [%] | cell viability [11] [%] | cell viability [12] [%] | cell viability [13] [%] | cell viability [14] [%] | cell viability [15] [%] | cell viability [16] [%] | cell viability [17] [%] | cell viability [18] [%] | cell viability [19] [%] | cell viability [20] [%] | cell viability [21] [%] | cell viability [22] [%] | cell viability [23] [%] | cell viability [24] [%] | cell viability [25] [%] | cell viability [26] [%] | cell viability [27] [%] | cell viability [28] [%] | cell viability [29] [%] | cell viability [30] [%] | cell viability [31] [%] | cell viability [32] [%] | cell viability [33] [%]
1 | [NH2][Pt]1([NH2])[O]CC(=O)[O]1 | 96.9 | 109 | 98 | 101 | 96 | 108 | 97.8 | 106 | 85.9 | 91.3 | 88.3 | 94.5 | 83 | 99.1 | 85.2 | 82.4 | 93.8 | 98.7 | 92.9 | 93.8 | 80.5 | 84.3 | 92.7 | 86.9 | 90.7 | 98.1 | 93.2 | 89.1 | 87.8 | 92.5 | 83.9 | 77.8 | 104
2 | Cc1ccccc1C(C(=O)NC1CCCCC1)N(C(=O)Cn1ccnc1C)c1cccc(F)c1 (centres undefined) | 96.4 | 93.1 | 122 | 119 | 123 | 111 | 108 | 90 | 100 | 99.2 | 89.4 | 88.6 | 93.9 | 102 | 91.9 | 93.9 | 109 | 106 | 91.7 | 90.7 | 86 | 97.3 | 104 | 85.9 | 104 | 106 | 99.1 | 116 | 100 | 91 | 91.4 | 93.3 | 80.7
3 | COc1c(C)cnc(Cn2cnc3c(Cl)nc(N)nc32)c1C | 108 | 112 | 138 | 120 | 151 | 129 | 80.8 | 36.7 | 19.8 | 18.2 | 14.3 | 117 | 112 | 115 | 139 | 129 | 119 | 91.7 | 26.5 | 18.6 | 14.3 | 15.7 | 119 | 122 | 121 | 132 | 128 | 101 | 90.1 | 34.9 | 18.2 | 18 | 20.2
4 | CC(=O)Nc1ccc(OC[C@](C)(O)C(=O)Nc2ccc([N+](=O)[O-])c(C(F)(F)F)c2)cc1 | 66.3 | 68.2 | 72.9 | 70.6 | 87.7 | 80.2 | 88.4 | 83.5 | 83.4 | 77.8 | 82.4 | 70.5 | 76.9 | 75.4 | 82.8 | 87 | 83 | 82.8 | 88.2 | 76.2 | 86.9 | 82.2 | 72 | 78.1 | 87.3 | 83.1 | 92.7 | 86.1 | 85.1 | 85.6 | 85.2 | 92.5 | 78
5 | Nc1ccccc1NC(=O)c1ccc(CNC(=O)OCc2cccnc2)cc1 | 103 | 127 | 111 | 108 | 118 | 110 | 81.1 | 47 | 22.9 | 12.7 | 3.22 | 103 | 92.5 | 103 | 99 | 108 | 103 | 88.7 | 58.6 | 33.9 | 10.7 | 3.59 | 115 | 107 | 110 | 115 | 123 | 97.3 | 94.2 | 53.9 | 24.7 | 9.54 | 2.99
6 | CCC(C)SSc1ncc[nH]1 (centres undefined) | 88 | 85.5 | 94.8 | 103 | 102 | 105 | 90.3 | 87.4 | 104 | 53.6 | 12.6 | 86 | 93.9 | 97.7 | 98.2 | 92.5 | 93.1 | 96.5 | 104 | 104 | 67.5 | 13.6 | 89 | 97.6 | 89.2 | 101 | 94.5 | 94.5 | 94.8 | 105 | 101 | 81.8 | 9.7
7 | Cl.Cl.Cl.O[C@@H](COc1cccc2ncccc12)CN1CCN([C@@H]2c3ccccc3[C@@H]3[C@H](c4ccccc42)C3(F)F)CC1 | 79.7 | 84.8 | 75.8 | 89.4 | 94.7 | 102 | 93.8 | 76.5 | 94.6 | 70.8 | 68.6 | 79.7 | 78.4 | 75.8 | 91.7 | 97 | 84.5 | 89.8 | 87.9 | 81 | 76.2 | 74.2 | 98.6 | 83.8 | 87.2 | 79.5 | 81 | 92.4 | 73.5 | 84.2 | 86.2 | 78.2 | 87
8 | CC1(C)O[C@@H]2C[C@H]3[C@@H]4CCC5=CC(=O)C=C[C@]5(C)[C@@]4(F)[C@@H](O)C[C@]3(C)[C@]2(C(=O)CO)O1 | 110 | 119 | 112 | 111 | 117 | 108 | 90.6 | 105 | 86.3 | 48.4 | 25.8 | 98.3 | 112 | 96.1 | 111 | 115 | 121 | 117 | 109 | 97.7 | 33.2 | 18.1 | 106 | 112 | 111 | 127 | 122 | 117 | 113 | 110 | 99.8 | 105 | 32.2
